These results are taken from patent publication US6815542B2 (priority 2000, dated 2004).

Molecules are shown by their SMILES.

A short description of data set [1]: Oral administration in rats over four weeks (clinical pathology). Type of data set: in vivo. The note with it: 180 mg/kg over four weeks. An excerpt:
Furthermore, it is contemplated that treatment of a viral disease with Levovirin is predominantly based on the modulation of the Th1/Th2 balance towards a Th1 dominated response, and not predominantly based on a direct antiviral effect. The term “direct antiviral” effect or activity as used herein refers to an immediate effect or activity of a drug on viral assembly or replication. In contrast, a reduction of viral activity or replication that is at least in part mediated by one or more components of the immune system is not considered a “direct antiviral” effect or activity. Likewise, it should be appreciated that a relative reduction of the Th2 response during a treatment may be especially advantageous in diseases that are correlated with an increased Th2 response (e.g., HCV infection).

Data set [2] concerns IMP dehydrogenase. Conditions: cited from earlier work.
For data set [3], the system named is ten different viruses. Conditions: compared with Ribavirin; cited from earlier work.
The conditions of data set [4]: preliminary toxicology studies; cited from earlier work.

Regarding `NC(=O)c1ncn([C@H]2O[C@@H](CO)[C@H](O)[C@@H]2O)n1` [Levovirin], the “clinical pathology after oral administration” value in data set [1] is reported as “did not produce any observable clinical pathology”.
For `NC(=O)c1ncn([C@@H]2O[C@H](CO)[C@@H](O)[C@H]2O)n1` [Ribavirin, 1-β-D-ribofuranosyl-1,2,4-triazole-3-carboxamide], the “inhibition of IMP dehydrogenase” value in data set [2] is recorded as “inhibitor of IMP dehydrogenase”. Moreover, the “clinical pathology after oral administration” value in data set [1] is “significant hemolytic anemia and leukopenia”.
With `N=C(N)c1ncn([C@@H]2O[C@H](CO)[C@@H](O)[C@H]2O)n1` [Viramidine], the “inhibition of IMP dehydrogenase” value in data set [2] is “inhibitor of IMP dehydrogenase”. In addition, the antiviral activity entry in data set [3] is “active in ten different viruses—comparable to Ribavirin”. For the same molecule, in data set [4], the “toxicity relative to Ribavirin” value is on record as “less toxic than Ribavirin”.
